Drawing on PubChem BioAssay (NCI), this text covers GI50 and TGI for 7 molecules.

SMILES strings stand for the structures.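 In this assay, cells in 96-well plates receive the compound at five concentrations for 48 hours. Endpoints are linearly interpolated between the surrounding concentrations. GI50 is the concentration that inhibits growth by half. At the TGI there is no net growth.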

As a reminder, the GI50 is the concentration that inhibits growth by half. Usually TGI stands for the concentration at which net growth stops.

Some test systems named below: HT29 colon; NCI-H522 lung; A549 NSCLC; NCI-H460 lung; M14 melanoma; IGROV1 ovarian; PC-3 prostate; LOX IMVI melanoma; EKVX NSCLC; OVCAR-5 ovarian.
Assay in all cases: DTP human tumour cell line panel, 48 h

Consider `CCOC(=O)c1sc(NC(=O)COc2ccc(/C=C3\CCc4cc(OC)ccc4C3=O)cc2)nc1C`, for which the GI50 in the test with HT29 colon was 13.7 µM; in the test on NCI-H522 lung, 4.56 µM; in the test on A549 NSCLC it was 13.1 µM; in the test with NCI-H460 lung, 14.3 µM; in the test on M14 melanoma, 13.3 µM; with IGROV1 ovarian, 1.63 µM. For the same molecule, the GI50 was 10.2 µM with PC-3 prostate, 1.31 µM in the test on LOX IMVI melanoma, 18.5 µM with EKVX NSCLC and 8.97 µM in the test on OVCAR-5 ovarian. The total growth inhibition concentration (TGI) in the test on HT29 colon amounted to 28.6 µM; with NCI-H522 lung it was 12.1 µM; in the test with A549 NSCLC it was 35.8 µM; in the test with NCI-H460 lung it was 28.7 µM; in the test with M14 melanoma it was 26.2 µM; in the test with IGROV1 ovarian, 6.22 µM. The TGI with PC-3 prostate is more than 57.3 µM; in the test on LOX IMVI melanoma, 18.8 µM; in the test with EKVX NSCLC, 53.3 µM; with OVCAR-5 ovarian, 24.6 µM.

In the case of `COc1ccc(-c2cn3ccnc3c(-c3ccc(Cl)cc3)n2)cc1`, the GI50 in the test on HT29 colon is 6.66 µM; with NCI-H522 lung, more than 100 µM; in the test with A549 NSCLC it was 7.49 µM; in the test with NCI-H460 lung, 10.8 µM; with M14 melanoma, 5.95 µM; in the test with IGROV1 ovarian, 7.46 µM. Also, the GI50 was 14.5 µM in the test on PC-3 prostate, 7.95 µM in the test on LOX IMVI melanoma, 2.39 µM with EKVX NSCLC and 9.52 µM with OVCAR-5 ovarian. For the same molecule, the TGI is more than 100 µM in the test with HT29 colon; more than 100 µM in the test on NCI-H522 lung; 99.3 µM with A549 NSCLC; more than 100 µM in the test on NCI-H460 lung; more than 100 µM with M14 melanoma; more than 100 µM with IGROV1 ovarian. For the same molecule, the TGI in the test on PC-3 prostate, in the test on LOX IMVI melanoma, with EKVX NSCLC and in the test with OVCAR-5 ovarian was more than 100 µM in each case.

Regarding `CN(C)CCN=c1nc2c(c(N)n1-c1ccccc1)c(=S)n(-c1ccccc1)c(=S)n2-c1ccccc1`, the GI50 was 1.48 µM with HT29 colon; 2.39 µM in the test with NCI-H522 lung; 4.86 µM in the test with A549 NSCLC; 2.33 µM in the test on NCI-H460 lung; 1.69 µM with M14 melanoma; 8.09 µM in the test on IGROV1 ovarian. For the same molecule, the GI50 with PC-3 prostate was 4.58 µM; in the test on LOX IMVI melanoma, 1.38 µM; in the test with EKVX NSCLC, 11 µM; in the test on OVCAR-5 ovarian it was 9.95 µM. For the same molecule, the TGI in the test on HT29 colon worked out at 3.82 µM; in the test on NCI-H522 lung, 6.82 µM; with A549 NSCLC it was 19.8 µM; in the test with NCI-H460 lung, 6.29 µM; in the test with M14 melanoma, 3.81 µM; with IGROV1 ovarian it was 23 µM. The TGI in the test with PC-3 prostate stood at 27.7 µM; in the test with LOX IMVI melanoma, 2.71 µM; in the test on EKVX NSCLC, 27.2 µM; in the test on OVCAR-5 ovarian, 25.5 µM.

`COc1ccc2c(CN3CCCC[C@H]3O)cc3cc4c(cc3c2c1)OCO4`: the concentration for 50% growth inhibition (GI50) in the test on HT29 colon is 0.274 µM; in the test on NCI-H522 lung, 0.214 µM; in the test on A549 NSCLC, 0.28 µM; in the test with NCI-H460 lung it was 0.295 µM; in the test on M14 melanoma it was 0.319 µM; with IGROV1 ovarian it was 0.368 µM. Further, the GI50 in the test on PC-3 prostate was 0.467 µM; in the test with LOX IMVI melanoma, 0.228 µM; with EKVX NSCLC, 0.817 µM; in the test on OVCAR-5 ovarian, 0.489 µM. Further, the TGI was 1.93 µM with HT29 colon; 0.559 µM in the test with NCI-H522 lung; 2.82 µM in the test on A549 NSCLC; 10.4 µM in the test with NCI-H460 lung; 1.15 µM in the test with M14 melanoma; 9.3 µM in the test on IGROV1 ovarian. Besides, the total growth inhibition concentration (TGI) in the test with PC-3 prostate came out at 3.53 µM; in the test on LOX IMVI melanoma, 0.849 µM; in the test on EKVX NSCLC, 9.44 µM; with OVCAR-5 ovarian it was 14.1 µM.

For the molecule `CC(C)(O)c1cc(Nc2cc(Oc3cn(C4CC4)nc3C3CCOCC3)ccn2)ccn1`, the GI50 in the test on HT29 colon was 68 µM; with NCI-H522 lung it was 52.2 µM; in the test on A549 NSCLC it was more than 100 µM; in the test with NCI-H460 lung, more than 100 µM; in the test with M14 melanoma, 89.1 µM; in the test with IGROV1 ovarian, 62.4 µM. For the same molecule, the GI50 is 88.1 µM in the test on PC-3 prostate, 35.1 µM in the test with LOX IMVI melanoma, more than 100 µM in the test on EKVX NSCLC and more than 100 µM in the test on OVCAR-5 ovarian. Further, the TGI in the test with HT29 colon, in the test with NCI-H522 lung, in the test on A549 NSCLC, in the test on NCI-H460 lung, in the test on M14 melanoma and with IGROV1 ovarian was more than 100 µM in each case. Moreover, the TGI in the test on PC-3 prostate, in the test on LOX IMVI melanoma, in the test on EKVX NSCLC and with OVCAR-5 ovarian was more than 100 µM each time.

As for `CN(Cc1cnc2nc(N)nc(N)c2n1)c1c(Cl)cc(C(=O)NC(CCC(=O)O)C(=O)O)cc1Cl` (centres undefined), the GI50 with HT29 colon was less than 0.01 µM; in the test with NCI-H522 lung, 0.0457 µM; in the test on A549 NSCLC it was less than 0.0116 µM; in the test with NCI-H460 lung, less than 0.01 µM; in the test with M14 melanoma, less than 0.01 µM; with IGROV1 ovarian it was less than 0.01 µM. In addition, the concentration for 50% growth inhibition (GI50) was less than 0.01 µM in the test with PC-3 prostate, less than 0.01 µM in the test on LOX IMVI melanoma and 1.76 µM in the test with OVCAR-5 ovarian. The concentration for total growth inhibition (TGI) in the test on HT29 colon, in the test on NCI-H522 lung, in the test with A549 NSCLC, in the test on NCI-H460 lung, in the test with M14 melanoma and in the test with IGROV1 ovarian was more than 100 µM each time. The TGI in the test on PC-3 prostate, in the test on LOX IMVI melanoma, in the test on EKVX NSCLC and in the test with OVCAR-5 ovarian was more than 100 µM each time.

With `C[C@]12CCC3c4ccc(O)cc4CCC3C1CC[C@@H]2NC(=O)/C=C/c1ccc(O)c(O)c1` (some centres undefined), the GI50 in the test with HT29 colon is 3.97 µM; in the test on NCI-H522 lung, 6.25 µM; in the test on A549 NSCLC it was 15.5 µM; in the test on NCI-H460 lung it was 11.9 µM; with M14 melanoma, 10.6 µM; in the test on IGROV1 ovarian, 12.1 µM. Also, the GI50 in the test on PC-3 prostate was 3.94 µM; in the test on LOX IMVI melanoma, 3.86 µM; in the test with EKVX NSCLC, 10.2 µM; in the test on OVCAR-5 ovarian, 18.1 µM. In addition, the total growth inhibition concentration (TGI) in the test on HT29 colon came to 15.4 µM; in the test with NCI-H522 lung, 27.4 µM; in the test with A549 NSCLC, 31.8 µM; in the test with NCI-H460 lung it was 35.3 µM; with M14 melanoma, 22.9 µM; with IGROV1 ovarian, 32.2 µM. Also, the TGI in the test on PC-3 prostate is 40.5 µM; in the test with LOX IMVI melanoma it was 17.8 µM; with EKVX NSCLC it was 31.2 µM; in the test on OVCAR-5 ovarian, 35.9 µM.
